Test results as given in the NIST ThermoML archive (doi:10.1007/s10765-016-2089-2).

Key:
[1] = wn = mass fraction of the nth substance listed; details: 100 kPa, Liquid; for electrical conductivity: Alternating current cell with electrodes; for viscosity: Capillary tube (Ostwald / Ubbelohde) method; for mass density: Vibrating tube method
[2] = refractive index (Na D-line) (dimensionless); wn = mass fraction of the nth substance listed; details: 100 kPa, Liquid, Standard Abbe refractometry

O=S(=O)([O-])[O-].[Cu+2] [copper sulfate] + O
Details | electrical conductivity, [1] [S/m] | mass density, [1] [kg/m3] | refractive index, [2] | viscosity, [1] [mPa·s]
288.15 K, w1 = 0.0101 | 0.492 | 1009.6 | 1.3353 | 1.188
288.15 K, w1 = 0.0202 | 0.851 | 1019.98 | 1.3372 | 1.263
288.15 K, w1 = 0.0305 | 1.17 | 1030.49 | 1.3391 | 1.344
288.15 K, w1 = 0.0409 | 1.47 | 1041.68 | 1.3411 | 1.371
288.15 K, w1 = 0.0514 | 1.76 | 1052.54 | 1.3429 | 1.404
288.15 K, w1 = 0.0621 | 2.03 | 1063.7 | 1.3449 | 1.472
288.15 K, w1 = 0.0729 | 2.29 | 1074.95 | 1.3469 | 1.591
288.15 K, w1 = 0.0838 | 2.54 | 1086.38 | 1.3488 | 1.649
288.15 K, w1 = 0.0948 | 2.77 | 1098.22 | 1.3508 | 1.744
293.15 K, w1 = 0.0101 | 0.548 | 1008.63 | 1.3348 | 1.083
293.15 K, w1 = 0.0202 | 0.943 | 1019.09 | 1.3367 | 1.132
293.15 K, w1 = 0.0305 | 1.31 | 1029.38 | 1.3384 | 1.191
293.15 K, w1 = 0.0409 | 1.63 | 1040.53 | 1.3405 | 1.199
293.15 K, w1 = 0.0514 | 1.96 | 1051.49 | 1.3424 | 1.273
293.15 K, w1 = 0.0621 | 2.26 | 1062.26 | 1.3444 | 1.31
293.15 K, w1 = 0.0729 | 2.55 | 1073.67 | 1.3463 | 1.393
293.15 K, w1 = 0.0838 | 2.82 | 1084.84 | 1.3483 | 1.452
293.15 K, w1 = 0.0948 | 3.09 | 1096.44 | 1.3504 | 1.528
298.15 K, w1 = 0.0101 | 0.61 | 1007.43 | 1.3343 | 0.937
298.15 K, w1 = 0.0202 | 1.05 | 1017.84 | 1.3362 | 1.001
298.15 K, w1 = 0.0305 | 1.45 | 1028.06 | 1.3379 | 1.018
298.15 K, w1 = 0.0409 | 1.83 | 1039 | 1.34 | 1.068
298.15 K, w1 = 0.0514 | 2.18 | 1049.67 | 1.3418 | 1.123
298.15 K, w1 = 0.0621 | 2.52 | 1060.66 | 1.3437 | 1.142
298.15 K, w1 = 0.0729 | 2.84 | 1071.85 | 1.3456 | 1.227
298.15 K, w1 = 0.0838 | 3.16 | 1083.16 | 1.3476 | 1.288
298.15 K, w1 = 0.0948 | 3.44 | 1094.5 | 1.3495 | 1.36
303.15 K, w1 = 0.0101 | 0.664 | 1005.98 | 1.3338 | 0.835
303.15 K, w1 = 0.0202 | 1.14 | 1016.35 | 1.3356 | 0.892
303.15 K, w1 = 0.0305 | 1.59 | 1026.77 | 1.3373 | 0.918
303.15 K, w1 = 0.0409 | 2 | 1037.41 | 1.3392 | 0.952
303.15 K, w1 = 0.0514 | 2.38 | 1048.04 | 1.3411 | 1.014
303.15 K, w1 = 0.0621 | 2.75 | 1058.96 | 1.343 | 1.029
303.15 K, w1 = 0.0729 | 3.1 | 1070.1 | 1.3449 | 1.098
303.15 K, w1 = 0.0838 | 3.44 | 1081.38 | 1.3468 | 1.122
303.15 K, w1 = 0.0948 | 3.76 | 1092.64 | 1.3488 | 1.203
308.15 K, w1 = 0.0101 | 0.719 | 1004.32 | 1.3331 | 0.758
308.15 K, w1 = 0.0202 | 1.24 | 1014.65 | 1.3349 | 0.8
308.15 K, w1 = 0.0305 | 1.72 | 1024.97 | 1.3367 | 0.835
308.15 K, w1 = 0.0409 | 2.16 | 1035.64 | 1.3387 | 0.857
308.15 K, w1 = 0.0514 | 2.57 | 1046.35 | 1.3405 | 0.883
308.15 K, w1 = 0.0621 | 2.97 | 1057.16 | 1.3426 | 0.948
308.15 K, w1 = 0.0729 | 3.36 | 1068.13 | 1.3445 | 0.99
308.15 K, w1 = 0.0838 | 3.74 | 1078.76 | 1.3463 | 1.022
308.15 K, w1 = 0.0948 | 4.09 | 1091.27 | 1.3481 | 1.089
